Experimental data taken from US20220119354A1, “DIAMINO-SUBSTITUTED PYRIDINES AND PYRIMIDINES AS HERBICIDES” (FMC Corporation, priority 2019, published 2022).

Tests used:
Type in all cases: in vivo
[1] = system: barnyardgrass (Echinochloa crus-galli); test: Test A preemergence, barnyardgrass; conditions: 0 to 100 scale, 0 is no effect, 100 is complete control
In short: (§1)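 Greenhouse pot test, loam/sand soil. Pre: directed soil spray at planting; post: foliar spray at 1–2 leaf stage (2–10 cm). Chemical in non-phytotoxic solvent + surfactant. Visual rating ~10 d, 0 = no effect, 100 = complete control.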

kochia (Kochia scoparia) [2] = test: Test A preemergence, kochia; conditions: 0 to 100 scale, 0 is no effect, 100 is complete control
In short: as §1

[3] = system: ragweed (common ragweed, Ambrosia elatior); test: Test A preemergence, ragweed; conditions: 0 to 100 scale, 0 is no effect, 100 is complete control
In short: as §1

[4] = system: ryegrass, Italian (Lolium multiflorum); test: Test A preemergence, Italian ryegrass; conditions: 0 to 100 scale, 0 is no effect, 100 is complete control
In short: as §1

[5] = system: foxtail, giant (Setaria faberii); test: Test A preemergence, giant foxtail; conditions: 0 to 100 scale, 0 is no effect, 100 is complete control
In short: as §1

[6] = system: pigweed (Amaranthus retroflexus); test: Test A preemergence, pigweed; conditions: 0 to 100 scale, 0 is no effect, 100 is complete control
In short: as §1

[7] = system: barnyardgrass (Echinochloa crus-galli); test: Test A postemergence, barnyardgrass; conditions: 0 to 100 scale; for Plant response rating, Barnyardgrass: 125 g ai/ha, 0 no effect, 100 complete control; for Barnyardgrass plant response rating: 500 g ai/ha, 0 is no effect, 100 is complete control
In short: as §1

kochia (Kochia scoparia) [8] = test: Test A postemergence, kochia; conditions: 0 to 100 scale; for Plant response rating, Kochia: 125 g ai/ha, 0 no effect, 100 complete control; for Kochia plant response rating: 500 g ai/ha, 0 is no effect, 100 is complete control
In short: as §1

[9] = system: ragweed (common ragweed, Ambrosia elatior); test: Test A postemergence, ragweed; conditions: 0 to 100 scale; for Plant response rating, Ragweed: 125 g ai/ha, 0 no effect, 100 complete control; for Ragweed plant response rating: 500 g ai/ha, 0 is no effect, 100 is complete control
In short: as §1

[10] = system: ryegrass, Italian (Lolium multiflorum); test: Test A postemergence, Italian ryegrass; conditions: 0 to 100 scale; for Plant response rating, Ryegrass, Italian: 125 g ai/ha, 0 no effect, 100 complete control; for Ryegrass, Italian plant response rating: 500 g ai/ha, 0 is no effect, 100 is complete control
In short: as §1

[11] = system: foxtail, giant (Setaria faberii); test: Test A postemergence, giant foxtail; conditions: 0 to 100 scale; for Plant response rating, Foxtail, Giant: 125 g ai/ha, 0 no effect, 100 complete control; for Foxtail, Giant plant response rating: 500 g ai/ha, 0 is no effect, 100 is complete control
In short: as §1

[12] = system: pigweed (Amaranthus retroflexus); test: Test A postemergence, pigweed; conditions: 0 to 100 scale; for Plant response rating, Pigweed: 125 g ai/ha, 0 no effect, 100 complete control; for Pigweed plant response rating: 500 g ai/ha, 0 is no effect, 100 is complete control
In short: as §1

[13] = system: wheat (Triticum aestivum); test: Test A postemergence, wheat; conditions: 0 to 100 scale; for Plant response rating, Wheat: 125 g ai/ha, 0 no effect, 100 complete control; for Wheat plant response rating: 500 g ai/ha, 0 is no effect, 100 is complete control
In short: as §1

corn (Zea mays) = test: Test A postemergence, corn; conditions: 0 to 100 scale; for Plant response rating, Corn: 125 g ai/ha, 0 no effect, 100 complete control; for Corn plant response rating: 500 g ai/ha, 0 is no effect, 100 is complete control
In short: as §1

[14] = system: blackgrass (Alopecurus myosuroides); test: Test A postemergence, blackgrass; conditions: 0 to 100 scale; for Plant response rating, Blackgrass: 125 g ai/ha, 0 no effect, 100 complete control; for Blackgrass plant response rating: 500 g ai/ha, 0 is no effect, 100 is complete control
In short: as §1

[15] = system: galium (catchweed bedstraw, Galium aparine); test: Test A postemergence, galium; conditions: 0 to 100 scale; for Plant response rating, Galium: 125 g ai/ha, 0 no effect, 100 complete control; for Galium plant response rating: 500 g ai/ha, 0 is no effect, 100 is complete control
In short: as §1

rice (Oryza sativa) = test: Test B flooded paddy test, rice; conditions: Flood, 250 g ai/ha, applied to paddy water, 2-leaf stage, visual evaluation after 13 to 15 d
In short: (§2)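 Visual injury scores run from 0 (no effect) to 100 (complete control), assigned by comparison with controls 13 to 15 d after treatment. Treatment went into floodwater standing 3 cm over the soil of pots holding 2-leaf plants.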

[16] = system: sedge, umbrella (small-flower umbrella sedge, Cyperus difformis); test: Test B flooded paddy test, umbrella sedge; conditions: Flood, 250 g ai/ha, applied to paddy water, 2-leaf stage, visual evaluation after 13 to 15 d
In short: as §2

[17] = system: ducksalad (Heteranthera limosa); test: Test B flooded paddy test, ducksalad; conditions: Flood, 250 g ai/ha, applied to paddy water, 2-leaf stage, visual evaluation after 13 to 15 d
In short: as §2

[18] = system: barnyardgrass (Echinochloa crus-galli); test: Test B flooded paddy test, barnyardgrass; conditions: Flood, 250 g ai/ha, applied to paddy water, 2-leaf stage, visual evaluation after 13 to 15 d
In short: as §2

SMILES | Barnyardgrass plant response rating ([1]; 125 g ai/ha) | Barnyardgrass plant response rating ([1]; 500 g ai/ha) | Kochia plant response rating (kochia (Kochia scoparia) [2]; 125 g ai/ha) | Kochia plant response rating (kochia (Kochia scoparia) [2]; 500 g ai/ha) | Ragweed plant response rating ([3]; 125 g ai/ha) | Ragweed plant response rating ([3]; 500 g ai/ha) | Ryegrass, Italian plant response rating ([4]; 125 g ai/ha) | Ryegrass, Italian plant response rating ([4]; 500 g ai/ha) | Foxtail, Giant plant response rating ([5]; 125 g ai/ha) | Foxtail, Giant plant response rating ([5]; 500 g ai/ha) | Pigweed plant response rating ([6]; 125 g ai/ha) | Pigweed plant response rating ([6]; 500 g ai/ha) | Plant response rating, Barnyardgrass [7] | Barnyardgrass plant response rating [7] | Plant response rating, Kochia (kochia (Kochia scoparia) [8]) | Kochia plant response rating (kochia (Kochia scoparia) [8]) | Plant response rating, Ragweed [9] | Ragweed plant response rating [9] | Plant response rating, Ryegrass, Italian [10] | Ryegrass, Italian plant response rating [10] | further results
C[C@@H](Nc1ncc(C(F)(F)F)c(N)n1)c1csc2ccccc12 [Compound 41] | 40 | 90 | 70 | 90 | 90 | 100 | 20 | 80 | 30 | 90 | 80 | 100 | 0 | 50 | 70 | 90 | 60 | 90 | 20 | 70 | Plant response rating, Foxtail, Giant [11]: 50; Foxtail, Giant plant response rating [11]: 100; Plant response rating, Pigweed [12]: 90; Pigweed plant response rating [12]: 100; Plant response rating, Wheat [13]: 0; Wheat plant response rating [13]: 0; Plant response rating, Corn (corn (Zea mays)): 10; Corn plant response rating (corn (Zea mays)): 20; Plant response rating, Blackgrass [14]: 0; Blackgrass plant response rating [14]: 0; Plant response rating, Galium [15]: 50; Galium plant response rating [15]: 70; Plant response rating, Rice (0 to 100 scale, 0 is no effect, 100 is complete control) (rice (Oryza sativa)): 0; Plant response rating, Sedge, Umbrella (0 to 100 scale, 0 is no effect, 100 is complete control) [16]: 65; Plant response rating, Ducksalad (0 to 100 scale, 0 is no effect, 100 is complete control) [17]: 35; Plant response rating, Barnyardgrass (0 to 100 scale, 0 is no effect, 100 is complete control) [18]: 15
C[C@H](Nc1ncc(C(F)(F)F)c(N)n1)c1csc2ccccc12 [Compound 42] | 0 | 0 | 0 | 0 | 0 | 0 | 0 | 0 | 0 | 0 | 0 | 0 | 30 | 0 | 0 | 0 | 30 | 0 | 0 | 0 | Plant response rating, Foxtail, Giant [11]: 0; Foxtail, Giant plant response rating [11]: 0; Plant response rating, Pigweed [12]: 0; Pigweed plant response rating [12]: 0; Plant response rating, Wheat [13]: 0; Wheat plant response rating [13]: 0; Plant response rating, Corn (corn (Zea mays)): 0; Corn plant response rating (corn (Zea mays)): 0; Plant response rating, Blackgrass [14]: 20; Blackgrass plant response rating [14]: 0; Plant response rating, Galium [15]: 20; Galium plant response rating [15]: 20; Plant response rating, Rice (0 to 100 scale, 0 is no effect, 100 is complete control) (rice (Oryza sativa)): 0; Plant response rating, Sedge, Umbrella (0 to 100 scale, 0 is no effect, 100 is complete control) [16]: 0; Plant response rating, Ducksalad (0 to 100 scale, 0 is no effect, 100 is complete control) [17]: 0; Plant response rating, Barnyardgrass (0 to 100 scale, 0 is no effect, 100 is complete control) [18]: 0
